From PMC10774164, “Hydrolysis of ionic liquid–treated substrate with an Iocasia fonsfrigidae strain SP3-1 endoglucanase” (Applied Microbiology and Biotechnology, 2024)

What follows are molecules tested on T1, IfCelS12A (assay: hydrolysis kinetics, Lineweaver-Burk plot). Conditions: 50 mM Tris-HCl pH 7.0, 50 °C, 10 min, 0.5 μM enzyme.
T1 construct: tag removal not described
Type: biochemical, Iocasia fonsfrigidae
From the text: hydrolysis kinetics, Lineweaver-Burk plot on IfCelS12A
With `OC[C@H]1O[C@@H](O[C@H]2[C@H](O)[C@@H](O)[C@H](O[C@H]3[C@H](O)[C@@H](O)[C@H](O[C@H]4[C@H](O)[C@@H](O)C(O)O[C@@H]4CO)O[C@@H]3CO)O[C@@H]2CO)[C@H](O)[C@@H](O)[C@@H]1O` (stereo partly drawn) [G4, Cellotetraose] the Km was 250 µM. `OC[C@H]1O[C@@H](O[C@H]2[C@H](O)[C@@H](O)[C@H](O[C@H]3[C@H](O)[C@@H](O)[C@H](O[C@H]4[C@H](O)[C@@H](O)[C@H](O[C@H]5[C@H](O)[C@@H](O)C(O)O[C@@H]5CO)O[C@@H]4CO)O[C@@H]3CO)O[C@@H]2CO)[C@H](O)[C@@H](O)[C@@H]1O` (stereo partly drawn) [G5, Cellopentaose] showed a Km of 270 µM. Molecule `OC[C@H]1O[C@@H](O[C@H]2[C@H](O)[C@@H](O)[C@H](O[C@H]3[C@H](O)[C@@H](O)[C@H](O[C@H]4[C@H](O)[C@@H](O)[C@H](O[C@H]5[C@H](O)[C@@H](O)[C@H](O[C@H]6[C@H](O)[C@@H](O)C(O)O[C@@H]6CO)O[C@@H]5CO)O[C@@H]4CO)O[C@@H]3CO)O[C@@H]2CO)[C@H](O)[C@@H](O)[C@@H]1O` (stereo partly drawn) [G6, Cellohexaose] has a Km of 390 µM.
